# How the values were obtained:
# Type in all cases: in vivo
# [1] = system: green peach aphid (Myzus persicae); test: Myzus persicae test (Example A), spray on infested cabbage leaves; conditions: single compound
# Procedure: (§1) To produce a suitable preparation of active compound, 1 part by weight of active compound is mixed with the stated amount of solvent and emulsifier, and the concentrate is diluted with emulsifier-containing water to the desired concentration.
# (§2) Cabbage leaves (Brassica oleracea) which are heavily infested by the green peach aphid (Myzus persicae) are treated by being sprayed with the preparation of the active compound at the desired concentration.
# (§3) After the specified period of time, the mortality in % is determined. 100% means that all the aphids have been killed; 0% means that none of the aphids have been killed.
# [2] = system: larvae of the fall army worm (Spodoptera frugiperda); test: Spodoptera frugiperda test (Example C), sprayed cabbage leaves; conditions: single compound
# Procedure: as §1
# Cabbage leaves (Brassica oleracea) are treated by being sprayed with the preparation of the active compound at the desired concentration and are infested with larvae of the fall army worm (Spodoptera frugiperda) as long as the leaves are still moist.
# (§4) After the specified period of time, the mortality in % is determined. 100% means that all the caterpillars have been killed; 0% means that none of the caterpillars have been killed. According to the present application in this test e.g. the following combinations show a synergistic effect in comparison to the single compounds: […]
# [3] = system: green peach aphid (Myzus persicae); test: Myzus persicae test (Example E), spray on infested cabbage leaves; conditions: single compound
# Procedure: as §1, §2, §3
# [4] = system: cotton aphid (Aphis gossypii); test: Aphis gossypii test (Example D), spray on infested cotton leaves; conditions: single compound
# Procedure: Solvent: 7 parts by weight of dimethylformamide Emulsifier: 2 parts by weight of alkylaryl polyglycolether
# as §1
# Cotton leaves (Gossypium hirsutum) which are heavily infested by the cotton aphid (Aphis gossypii) are treated by being sprayed with the preparation of the active compound at the desired concentration.
# as §3
# [5] = system: larvae of the mustard beetle (Phaedon cochleariae); test: Phaedon cochleariae larvae test (Example B), sprayed cabbage leaves; conditions: 144 h, single compound, after 6 d
# Procedure: as §1
# Cabbage leaves (Brassica oleracea) are treated by being sprayed with the preparation of the active compound at the desired concentration and are infested with larvae of the mustard beetle (Phaedon cochleariae) as long as the leaves are still moist.
# as §4, with “beetle larvae” for “caterpillars”
# [6] = Myzus persicae, 144 h, 500 g/ha, after 6 d
structure (smiles),measurement,setting,value
"Cn1cc(C(=O)Nc2ccc(F)cc2-c2ccc(Cl)c(Cl)c2)c(C(F)F)n1 [Bixafen, bixafen]",Mortality in % after 6 d,[1]; 500 g/ha,0%
same,Mortality in % after 6 d,[2]; 500 g/ha,17%
"CSC1=N[C@@](C)(c2ccccc2)C(=O)N1Nc1ccccc1 [Fenamidone, fenamidone]",mortality at 200 g/ha,"[3]; Myzus persicae, 144 h, 200 g/ha, after 6 d",0%
same,mortality at 200 g/ha,"[4]; Aphis gossypii, 144 h, 200 g/ha, after 6 d",0%
"O=C(NCCc1ncc(C(F)(F)F)cc1Cl)c1ccccc1C(F)(F)F [Fluopyram, fluopyram]",mortality at 500 g/ha,[1]; [6],0%
same,mortality at 500 g/ha,[5]; 500 g/ha,0%
"CO/N=C(/C1=NOCCO1)c1ccccc1Oc1ncnc(Oc2ccccc2Cl)c1F [Fluoxastrobin, fluoxastrobin]",mortality at 500 g/ha,[1]; [6],0%
"CNC(=O)/C(=N/OC)c1ccccc1Oc1ccccc1 [Metominostrobin, metominostrobin]",mortality at 500 g/ha,[1]; [6],0%
"Cc1nn(C)c(F)c1C(=O)Nc1ccccc1C(C)CC(C)C (stereo not drawn) [Penflufen, penflufen]",Mortality in % after 6 d,[3]; 200 g/ha,0%
same,Mortality in % after 6 d,[4]; 200 g/ha,0%
"COC(=O)N(OC)c1ccccc1COc1ccn(-c2ccc(Cl)cc2)n1 [Pyraclostrobin, pyraclostrobin]",mortality at 500 g/ha,[1]; [6],0%
CC1(C)[C@H](C=C(Cl)Cl)[C@H]1C(=O)OCc1c(F)c(F)cc(F)c1F [Transfluthrin],mortality at 20 g/ha,"[1]; Myzus persicae, 144 h, 20 g/ha, after 6 d",70%
same,mortality at 100 g/ha,"[1]; Myzus persicae, 144 h, 100 g/ha, after 6 d",80%
same,mortality at 20 g/ha,[5]; 20 g/ha,0%
same,mortality at 4 g/ha,"[2]; Spodoptera frugiperda, 144 h, 4 g/ha, after 6 d",50%
same,mortality at 10 g/ha,"[3]; Myzus persicae, 144 h, 10 g/ha, after 6 d",0%
same,mortality at 10 g/ha,"[4]; Aphis gossypii, 144 h, 10 g/ha, after 6 d",5%
"CON=C(C(=O)OC)c1ccccc1CON=C(C)c1cccc(C(F)(F)F)c1 [Trifloxystrobin, trifloxystrobin]",mortality at 500 g/ha,[1]; [6],0%

# — US20110152078A1, “Pesticidal Compound Mixtures” (BAYER CROPSCIENCE AG, priority 2009, published 2011)
